Results as given in patent EP4678644A1, “SUBSTITUTED DIHYDROTHIENOPYRIMIDINE COMPOUND, PREPARATION METHOD THEREFOR, AND USE THEREOF” (Shanghai Yidi Biotechnology Co., Ltd., priority 2023, dated 2024).

Tests used:
PDE4D2 = PDE4D2 (Homo sapiens, UniProt Q08499); assay: PDE4D2 enzyme experiment (AMP-glo, cAMP substrate); assay type: biochemical; details: read-out: PDE4D2 IC50 Binding
Source text: Inhibition rate % ^= (1 - (RLUpositive control - RLUcompound)/(RLUpositive control - RLUnegative control)) * 100.

PDE4B2 [1] = target: T1, PDE4B2 (Homo sapiens, UniProt Q07343); assay: PDE4B2 cell experiment (cAMP, Eu-cAMP tracer / Ulight-anti-cAMP); assay type: cell-based; details: Flpin-293-PDE4B2 cells
T1 construct: expressed in transfected cells; host or cells: Flp-In-293 (Flpin-293-PDE4B2 [sic])

PDE4B2 [2] = target: T1, PDE4B2; assay: PDE4B2 enzyme experiment (AMP-glo, cAMP substrate); assay type: biochemical

T1 sequence (Q07343 1-564 isoform Q07343-2): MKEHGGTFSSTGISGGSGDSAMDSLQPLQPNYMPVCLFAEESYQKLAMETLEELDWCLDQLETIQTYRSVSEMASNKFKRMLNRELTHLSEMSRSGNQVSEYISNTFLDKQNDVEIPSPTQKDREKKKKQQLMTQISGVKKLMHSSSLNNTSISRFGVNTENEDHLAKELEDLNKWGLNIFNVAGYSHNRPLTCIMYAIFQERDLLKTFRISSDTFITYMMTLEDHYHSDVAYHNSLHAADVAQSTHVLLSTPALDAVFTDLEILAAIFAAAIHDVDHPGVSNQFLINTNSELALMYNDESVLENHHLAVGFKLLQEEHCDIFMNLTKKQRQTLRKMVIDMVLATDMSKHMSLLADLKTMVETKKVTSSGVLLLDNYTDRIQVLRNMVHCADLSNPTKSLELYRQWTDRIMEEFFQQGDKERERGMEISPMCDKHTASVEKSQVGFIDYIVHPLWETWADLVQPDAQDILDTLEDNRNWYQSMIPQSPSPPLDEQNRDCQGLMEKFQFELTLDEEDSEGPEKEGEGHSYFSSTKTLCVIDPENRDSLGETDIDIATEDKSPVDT
Chain of PDE4D2 (Q08499 303-809 limits assumed): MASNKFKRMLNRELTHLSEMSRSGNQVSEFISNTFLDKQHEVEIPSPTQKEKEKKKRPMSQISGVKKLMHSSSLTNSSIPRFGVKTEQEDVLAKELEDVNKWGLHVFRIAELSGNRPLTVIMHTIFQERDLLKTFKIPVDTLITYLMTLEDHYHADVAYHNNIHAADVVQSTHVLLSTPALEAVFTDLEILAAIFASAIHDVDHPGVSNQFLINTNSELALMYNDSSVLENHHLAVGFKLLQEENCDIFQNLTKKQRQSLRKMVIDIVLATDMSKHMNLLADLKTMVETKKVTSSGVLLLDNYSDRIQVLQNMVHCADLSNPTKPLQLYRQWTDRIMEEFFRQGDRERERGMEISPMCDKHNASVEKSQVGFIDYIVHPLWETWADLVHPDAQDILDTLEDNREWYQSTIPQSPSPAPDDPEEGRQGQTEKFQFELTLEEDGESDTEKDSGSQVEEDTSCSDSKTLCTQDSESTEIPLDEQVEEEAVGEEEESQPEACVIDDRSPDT

SMILES	IC50 (PDE4D2)	Cell Inhibition% @1 nM (PDE4B2 [1])	Cell Inhibition% @10 nM (PDE4B2 [1])	Cell Inhibition% @100 nM (PDE4B2 [1])	IC50 (PDE4B2 [2])	IC50 (PDE4B2 [1]; Foskolin)
Cn1cnc(-c2ccc3c(c2)CCN(c2nc4c(c(NC5(CO)CCC5)n2)[S+]([O-])CC4)C3)n1 (centres unmarked) [Compound 94]	0.125 nM	34.83%	94.09%	100.44%	0.0712 nM	–
Cn1c2c(c3ccc(Cl)cc3c1=O)CCN(c1nc3c(c(NC4(CO)CCC4)n1)[S+]([O-])CC3)C2 (centres unmarked) [Compound 98]	2.04 nM	-1.71%	46.69%	95.76%	0.889 nM	–
COc1nc2c(c3ccc(Cl)cc13)CCN(c1nc3c(c(NC4(CO)CCC4)n1)[S+]([O-])CC3)C2 (centres unmarked) [Compound 99]	3.14 nM	4.18%	43.68%	96.53%	1.24 nM	–
[O-][S+]1CCc2nc(N3CCc4c(ncc5cc(Cl)ccc45)C3)nc(NC3(CO)CCC3)c21 (centres unmarked) [Compound 100]	1.15 nM	6.00%	47.68%	97.30%	0.426 nM	–
COc1nc2cc(Cl)ccc2c2c1CN(c1nc3c(c(NC4(CO)CCC4)n1)[S+]([O-])CC3)CC2 (centres unmarked) [Compound 101]	1.96 nM	–	–	–	0.655 nM	13.2 nM
[O-][S+]1CCc2nc(N3CCc4c(c(NCCO)nc5cc(Cl)ccc45)C3)nc(NC3(CO)CCC3)c21 (centres unmarked) [Compound 103]	0.873 nM	2.83%	38.89%	95.41%	0.338 nM	–
[O-][S+]1CCc2nc(N3CC[C@H]4c5ccc(Cl)cc5OC[C@H]4C3)nc(NC3(CO)CCC3)c21 (some centres unmarked) [Compound 116]	12.4 nM	2.17%	16.91%	73.36%	3.01 nM	–

Other lines, results leading:

IC50 (PDE4D2)	Cell Inhibition% @1 nM (PDE4B2 [1])	Cell Inhibition% @10 nM (PDE4B2 [1])	Cell Inhibition% @100 nM (PDE4B2 [1])	IC50 (PDE4B2 [2])	IC50 (PDE4B2 [1]; Foskolin)	SMILES
2.95 nM	2.82%	52.48%	98.12%	1.14 nM	–	[O-][S+]1CCc2nc(N3CC[C@@H]4c5cccc(Cl)c5OC[C@H]4C3)nc(NC3(CO)CCC3)c21 (some centres unmarked) [Compound 107]
4.17 nM	-0.82%	37.35%	95.13%	1.41 nM	–	[O-][S+]1CCc2nc(N3CC[C@@H]4c5cc(Cl)ccc5OC[C@H]4C3)nc(NC3(CO)CCC3)c21 (some centres unmarked) [Compound 108]
18.1 nM	-0.97%	6.68%	25.39%	5.43 nM	–	O=C(O)Cc1ccc(Nc2nc(N3CCc4cc(Cl)ccc4C3)nc3c2[S@@+]([O-])CC3)cc1 [Compound 128]
0.705 nM	6.93%	39.59%	72.19%	0.202 nM	–	O=C(O)Cc1ccc(Nc2nc(N3CCc4cc(Cl)ccc4C3)nc3c2[S@+]([O-])CC3)cc1 [Compound 129]
